Source: ChEMBL document CHEMBL5247614, “An overview of aryl hydrocarbon receptor ligands in the Last two decades (2002-2022): A medicinal chemistry perspective” (Eur J Med Chem, 2022)
Blank lines part the entries; values can stand above or below the molecule they belong to.

Key:
CYP1A1 [1] = assay: Upregulation of CYP1A1 gene expression in human MDA-MB-468 cells transfected with XRE plasmid containing AhR responsive luciferase construct and renilla luciferase assessed as fold change in gene expression at 1 uM incubated for 24 hrs by dual-glo luciferase assay relative to control; assay type: ADME, cell-based; details: read-out: FC
CYP1A1 [2] = assay: Upregulation of CYP1A1 gene expression in human MDA-MB-468 cells transfected with XRE plasmid containing AhR responsive luciferase construct and renilla luciferase assessed as fold change in gene expression at 1 uM incubated for 1 hr by dual-glo luciferase assay relative to control; assay type: ADME, cell-based; details: read-out: FC
[3] = target: T1, Aryl hydrocarbon receptor (Homo sapiens, UniProt P35869); assay: Antagonist activity at AhR (unknown origin) assessed as inhibition of TCDD-induced luciferase activity
T1 sequence (P35869 whole entry): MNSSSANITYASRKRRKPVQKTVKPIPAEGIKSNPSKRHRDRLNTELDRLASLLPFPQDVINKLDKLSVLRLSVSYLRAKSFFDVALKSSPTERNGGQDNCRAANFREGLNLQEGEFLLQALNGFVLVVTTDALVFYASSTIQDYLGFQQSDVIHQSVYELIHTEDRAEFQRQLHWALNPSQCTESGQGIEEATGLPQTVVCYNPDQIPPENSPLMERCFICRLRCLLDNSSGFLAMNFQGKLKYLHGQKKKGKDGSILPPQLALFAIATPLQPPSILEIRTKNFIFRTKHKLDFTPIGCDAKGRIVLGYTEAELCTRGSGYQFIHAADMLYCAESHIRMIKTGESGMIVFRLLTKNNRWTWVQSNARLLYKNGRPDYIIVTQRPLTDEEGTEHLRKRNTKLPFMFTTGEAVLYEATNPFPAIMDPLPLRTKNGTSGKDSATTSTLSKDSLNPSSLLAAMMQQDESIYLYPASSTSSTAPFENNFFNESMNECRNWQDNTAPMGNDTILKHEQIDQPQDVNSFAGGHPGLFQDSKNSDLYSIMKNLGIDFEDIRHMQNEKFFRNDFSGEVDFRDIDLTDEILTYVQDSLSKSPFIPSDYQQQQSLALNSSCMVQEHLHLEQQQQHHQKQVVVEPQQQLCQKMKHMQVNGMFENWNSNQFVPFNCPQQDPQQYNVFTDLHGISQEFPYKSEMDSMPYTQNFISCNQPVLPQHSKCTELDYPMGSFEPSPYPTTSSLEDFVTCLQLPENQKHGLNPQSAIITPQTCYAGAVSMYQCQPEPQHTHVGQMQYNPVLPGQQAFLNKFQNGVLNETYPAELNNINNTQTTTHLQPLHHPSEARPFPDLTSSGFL

[4] = target: T1, Aryl hydrocarbon receptor; assay: Antagonist activity at AhR (unknown origin)
[5] = target: T1, Aryl hydrocarbon receptor
[6] = target: T1, Aryl hydrocarbon receptor; assay: Binding affinity to AhR (unknown origin) assessed as dissociation constant
[7] = Inhibition of kynurenic acid-induced CYP1A1 gene expression in human U-937 cells by qPCR analysis; assay type: ADME, cell-based
[8] = target: T1, Aryl hydrocarbon receptor; assay: Antagonist activity at AhR (unknown origin) expressed in human U87 cells assessed as inhibition of kynurenic acid-induced transactivation by Renilla/Firefly based dual-glo luciferase assay; assay type: cell-based
[9] = target: T2, Aryl hydrocarbon receptor (Rattus norvegicus, UniProt P41738); assay: Inhibition of TCDD binding to rat liver cytosol AhR; assay type: subcellular
T2 sequence (P41738 whole entry): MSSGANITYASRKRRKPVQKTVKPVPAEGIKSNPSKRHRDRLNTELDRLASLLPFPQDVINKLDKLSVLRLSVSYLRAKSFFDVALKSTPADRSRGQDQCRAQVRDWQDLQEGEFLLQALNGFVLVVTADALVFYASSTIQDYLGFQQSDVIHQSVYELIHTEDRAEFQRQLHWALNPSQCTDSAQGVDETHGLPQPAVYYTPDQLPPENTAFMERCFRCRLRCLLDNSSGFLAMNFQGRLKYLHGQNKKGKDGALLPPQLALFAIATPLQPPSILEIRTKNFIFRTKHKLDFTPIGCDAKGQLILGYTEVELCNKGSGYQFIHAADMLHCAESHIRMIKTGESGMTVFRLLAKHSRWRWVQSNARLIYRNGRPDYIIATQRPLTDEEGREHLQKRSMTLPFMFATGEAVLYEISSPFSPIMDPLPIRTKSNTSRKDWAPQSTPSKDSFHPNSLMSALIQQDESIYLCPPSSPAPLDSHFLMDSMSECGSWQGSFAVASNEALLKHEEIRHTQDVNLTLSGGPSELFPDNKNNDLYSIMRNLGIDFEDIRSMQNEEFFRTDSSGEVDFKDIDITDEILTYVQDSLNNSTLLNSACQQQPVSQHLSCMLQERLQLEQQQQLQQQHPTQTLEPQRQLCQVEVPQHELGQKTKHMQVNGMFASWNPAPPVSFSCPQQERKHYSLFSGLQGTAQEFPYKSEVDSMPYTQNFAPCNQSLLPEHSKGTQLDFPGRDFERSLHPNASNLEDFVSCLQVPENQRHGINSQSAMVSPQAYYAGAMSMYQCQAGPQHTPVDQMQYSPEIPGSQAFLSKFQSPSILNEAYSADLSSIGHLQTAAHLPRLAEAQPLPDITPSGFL

[10] = target: T2, Aryl hydrocarbon receptor; assay: Antagonist activity at AhR in rat liver cytosol assessed as inhibition of TCDD-induced AhR/DNA complex formation by gel retardation assay; assay type: subcellular
[11] = target: T1, Aryl hydrocarbon receptor; assay: Agonist activity at AhR (unknown origin)
[12] = target: T1, Aryl hydrocarbon receptor; assay: Antagonist activity at AhR (unknown origin) assessed as inhibition of receptor activation
[13] = target: T1, Aryl hydrocarbon receptor; assay: Activation of human AhR expressed in Saccharomyces cerevisiae YCM3 coexpressing ARNT incubated for 18 hrs
[14] = target: T1, Aryl hydrocarbon receptor; assay: Modulator activity at AhR (unknown origin)
Saccharomyces cerevisiae = assay: Activation of transcription in yeast expressing AhR and ARNT; assay type: functional, organism-based

fold induction at 24 h, 1 µM (CYP1A1 [1]): 250 | fold induction at 1 h, 1 µM (CYP1A1 [2]): 25
Compound: Nc1ccccc1N1C(=O)c2cccc3cccc(c23)C1=O

IC50 [3]: 30 nM
Compound: Cc1ccccc1/N=N/c1ccc(NC(=O)c2ccnn2C)c(C)c1

IC50 [4]: 11000 nM
Compound: Cc1[nH]c2ccccc2c1C

IC50 [5]: 127 nM
Compound: CC(C)n1cnc2c(NCCc3ccc(O)cc3)nc(-c3csc4ccccc34)nc21

Kd [6]: 0.19 nM
Compound: c1ccc2c(c1)[nH]c1cc3c(cc12)[nH]c1ccccc13

IC50 [7]: 70700 nM | IC50 [8]: 39.9 nM
Compound: CC(CO)NC(=O)c1cc(-c2ccc(Cl)cc2)nn(-c2cccc(F)c2)c1=O (centres undefined)

IC50 [9]: 4000 nM | IC50 [10]: 1000 nM
Compound: COc1ccc(-c2coc3ccccc3c2=O)cc1N

Compound: O=c1c(Cc2c[nH]c3ccccc23)nccc2c1[nH]c1ccccc12
EC50 [11]: 12 nM

Compound: O=C(NCC(O)C(F)(F)F)c1cc(-c2ccc(OC(F)(F)F)cc2)nn(-c2cccnc2)c1=O (centres undefined)
IC50 [4]: 82.2 nM

EC70 [12]: 3900 nM
Compound: O=C1CC(C(=O)O)c2c1oc(=O)c1cc(O)c(O)c(O)c21 (centres undefined)

IC50 [4]: < 500 nM
Compound: CC(C)c1cnn2c(N[C@@H]3CCc4[nH]c5ccccc5c4C3)nc(-c3cncc(F)c3)nc12

IC50 [4]: 12000 nM
Compound: Cc1[nH]c2c(C)cccc2c1C

Compound: c1ccc2c(c1)Nc1nc3ccccc3c3ccnc-2c13
EC50 [11]: 0.01 nM

Compound: Clc1cc2c(cc1Cl)Oc1cc(Cl)c(Cl)cc1O2 [2,3,7,8-TETRACHLORODIBENZO-P-DIOXIN]
EC50 [13]: 9 nM

EC50 [14]: 78000 nM | Kd [6]: 90 nM
Compound: c1ccc2c(Cc3c[nH]c4ccccc34)c[nH]c2c1 [ARUNDINE]

Kd [6]: 50 nM
Compound: CCS(=O)(=O)c1ccc2oc(-c3ccc4ccccc4c3)nc2c1 [EZUTROMID]

EC50 (Saccharomyces cerevisiae): 300000 nM
Compound: O=C(O)Cc1c[nH]c2ccccc12 [INDOLE-3-ACETIC ACID]

EC50 (Saccharomyces cerevisiae): 300000 nM
Compound: c1ccc2[nH]ccc2c1 [INDOLE]

Compound: NCCc1c[nH]c2ccccc12 [TRYPTAMINE]
EC50 (Saccharomyces cerevisiae): 300000 nM

EC50 (Saccharomyces cerevisiae): 300000 nM
Compound: N[C@@H](Cc1c[nH]c2ccccc12)C(=O)O [TRYPTOPHAN]
